Test results reported in patent publication US8741836B2, “Polypeptides” (Novo Nordisk A/S, priority 2011, dated 2014).
Starred links: 1 amine or outer side, 2 acyl side, 3 side chain; linkers in the order of their positions; H or OH if unused. Positions of bridges follow the written chain, without caps; N, C: chain ends. Residues, ends and D or L forms follow the SMILES beside them. *: point of attachment. C20 diacid = O=C(O)CCCCCCCCCCCCCCCCCCC(=O)*; C18 diacid = O=C(O)CCCCCCCCCCCCCCCCC(=O)*; γGlu = O=C(O)[C@H](CCC(=O)[*:2])N[*:1]

Assay: Assay (III) ThT fibrillation assay for physical stability
Assay type: physicochemical
Conditions: for ThT pH 4.0 lag time: pH 4.0, ThT fibrillation assay
Description: Assay (III)—ThT Fibrillation Assays for the Assessment of Physical Stability of Protein formulations Low physical stability of a polypeptide may lead to amyloid fibril formation, which is observed as well-ordered, thread-like macromolecular structures in the sample eventually resulting in gel formation. This has traditionally been measured by visual inspection of the sample. However, that kind of measurement is very subjective and depending on the observer. Therefore, the application of a small molecule indicator probe is much more advantageous. Thioflavin T (ThT) is such a probe and has a distinct fluorescence signature when binding to fibrils [Naiki et al. (1989) Anal. Biochem. 177, 244-249; LeVine (1999) Methods. Enzymol. […], 274-284]. The time course for fibril formation can be described by a sigmoidal curve with the following expression [Nielsen et al. (2001) Biochemistry 40, 6036-6046]: [formula] Here, F is the ThT fluorescence at the time t. The constant t0 is the time needed to reach 50% of maximum fluorescence. […] Few of those intermediates nucleate to form a template onto which further intermediates may assembly and the fibrillation proceeds. The lag-time corresponds to the interval in which the critical mass of nucleus is built up and the apparent rate constant is the rate with which the fibril itself is formed. Sample Preparation Samples were prepared freshly before each assay. Each sample composition is described in each example. The pH of the sample was adjusted to the desired value using appropriate amounts of concentrated NaOH and HClO4 or HCl. Thioflavin T was added to the samples from a stock solution in H2O to a final concentration of 1 μM. Sample aliquots of 200 μl were placed in a 96 well microtiter plate (Packard OptiPlate™-96, white polystyrene). Usually, four or eight replica of each sample (corresponding to one test condition) were placed in one column of wells. The plate was sealed with Scotch Pad (Qiagen). Incubation and Fluorescence Measurement Incubation at given temperature, shaking and measurement of the ThT fluorescence emission were done in a Fluoroskan Ascent FL fluorescence platereader or Varioskan platereader (Thermo Labsystems). The temperature was adjusted to 37° C. The orbital shaking was adjusted to 960 rpm with an amplitude of 1 mm in all the presented data. Fluorescence measurement was done using excitation through a 444 nm filter and measurement of emission through a 485 nm filter. Each run was initiated by incubating the plate at the assay temperature for 10 min. The plate was measured every 20 minutes for a desired period of time. Between each measurement, the plate was shaken and heated as described. Data Handling The measurement points were saved in Microsoft Excel format for further processing and curve drawing and fitting was performed using GraphPad Prism. The background emission from ThT in the absence of fibrils was negligible. The data points are typically a mean of four or eight samples and shown with standard deviation error bars. Only data obtained in the same experiment (i.e. samples on the same plate) are presented in the same graph ensuring a relative measure of fibrillation between experiments. The data set may be fitted to Eq. (1). However, since full sigmodial curves in this case are not always achieved during the measurement time, the degree of fibrillation is expressed as ThT fluorescence tabulated as the mean of the samples and shown with the standard deviation at various time points. Measurement of Initial and Final Concentrations The polypeptide concentration in each of the tested formulations were measured both before application in the ThT fibrillation assay (“Initial”) and after completion of the ThT fibrillation (“After ThT assay”). Concentrations were determined by reverse HPLC methods using a pramlintide standard as a reference. Before measurement after completion 150 μl was collected from each of the replica and transferred to an Eppendorf tube. […]

| ThT pH 4.0 lag time (physical stability in fibrillogenesis assay) [h] | ThT pH 4.0 lag time [h] | SMILES |
| --- | --- | --- |
| >45 |  | CC[C@H](C)[C@H](NC(=O)[C@@H]1CCCN1C(=O)CNC(=O)[C@H](Cc1ccccc1)NC(=O)[C@H](CO)NC(=O)[C@H](CO)NC(=O)[C@H](CO)NC(=O)[C@H](CO)NC(=O)[C@H](CCCNC(=N)N)NC(=O)[C@H](Cc1cnc[nH]1)NC(=O)[C@H](CC(C)C)NC(=O)[C@H](Cc1ccccc1)NC(=O)[C@H](CCC(=O)O)NC(=O)[C@H](C)NC(=O)[C@H](CC(C)C)NC(=O)[C@H](CCCNC(=N)N)NC(=O)[C@H](CCC(N)=O)NC(=O)[C@@H](NC(=O)[C@H](C)NC(=O)[C@@H]1CSSC[C@H](NC(=O)[C@H](Cc2cnc[nH]2)NC(=O)CC[C@H](NC(=O)CCCCCCCCCCCCCCCCCCC(=O)O)C(=O)O)C(=O)N[C@@H](CC(N)=O)C(=O)N[C@@H]([C@@H](C)O)C(=O)N[C@@H](C)C(=O)N[C@@H]([C@@H](C)O)C(=O)N1)[C@@H](C)O)C(=O)N[C@@H](CC(C)C)C(=O)N1CCC[C@H]1C(=O)N1CCC[C@H]1C(=O)N[C@H](C(=O)N[C@@H](CC(=O)O)C(=O)N[C@H](C(=O)NCC(=O)N[C@@H](CO)C(=O)N[C@@H](CC(=O)O)C(=O)N[C@H](C(=O)N[C@@H](Cc1ccc(O)cc1)C(N)=O)[C@@H](C)O)C(C)C)[C@@H](C)O [Example 9, N-alpha-[(S)-4-Carboxy-4-(19-carboxynonadecanoylamino)butyryl]-[His1,Glu14,His17,Arg18,Ser21,Ser22,Asp31,Asp35]-pramlintide] ({C20 diacid-γGlu}-HCNTATCATQRLAEFLHRSSSSFGPILPPTDVGSDTY-NH2; disulfide 2-7) |
|  | >45 | CC[C@H](C)[C@H](NC(=O)[C@@H]1CCCN1C(=O)CNC(=O)[C@H](Cc1ccccc1)NC(=O)[C@H](CC(N)=O)NC(=O)[C@H](CC(N)=O)NC(=O)[C@H](CO)NC(=O)[C@H](CO)NC(=O)[C@H](Cc1c[nH]cn1)NC(=O)[C@H](Cc1c[nH]cn1)NC(=O)[C@H](CC(C)C)NC(=O)[C@H](Cc1ccccc1)NC(=O)[C@H](CCC(=O)O)NC(=O)[C@H](C)NC(=O)[C@H](CC(C)C)NC(=O)[C@H](CCCNC(=N)N)NC(=O)[C@H](CCC(N)=O)NC(=O)[C@@H](NC(=O)[C@H](C)NC(=O)[C@@H]1CSSC[C@H](NC(=O)[C@H](CCCCN)NC(=O)CC[C@H](NC(=O)CCCCCCCCCCCCCCCCCCC(=O)O)C(=O)O)C(=O)N[C@@H](CC(N)=O)C(=O)N[C@@H]([C@@H](C)O)C(=O)N[C@@H](C)C(=O)N[C@@H]([C@@H](C)O)C(=O)N1)[C@@H](C)O)C(=O)N[C@@H](CC(C)C)C(=O)N1CCC[C@H]1C(=O)N1CCC[C@H]1C(=O)N[C@H](C(=O)N[C@@H](CC(N)=O)C(=O)N[C@H](C(=O)NCC(=O)N[C@@H](CO)C(=O)N[C@@H](CC(N)=O)C(=O)N[C@@H](Cc1c[nH]cn1)C(=O)N[C@@H](Cc1ccc(O)cc1)C(N)=O)C(C)C)[C@@H](C)O [Example 114, N-alpha-[(S)-4-Carboxy-4-(19-carboxynonadecanoylamino)butyryl]-[Glu14,His17,His36]-pramlintide] ({C20 diacid-γGlu}-KCNTATCATQRLAEFLHHSSNNFGPILPPTNVGSNHY-NH2; disulfide 2-7 (inferred)) |
| >45 | >45 | CC[C@H](C)[C@H](NC(=O)[C@@H]1CCCN1C(=O)CNC(=O)[C@H](Cc1ccccc1)NC(=O)[C@H](CC(N)=O)NC(=O)[C@H](CCC(N)=O)NC(=O)[C@H](CO)NC(=O)[C@H](CO)NC(=O)[C@H](Cc1c[nH]cn1)NC(=O)[C@H](Cc1c[nH]cn1)NC(=O)[C@H](CC(C)C)NC(=O)[C@H](Cc1ccccc1)NC(=O)[C@H](CCC(=O)O)NC(=O)[C@H](C)NC(=O)[C@H](CC(C)C)NC(=O)[C@H](CCCNC(=N)N)NC(=O)[C@H](CCC(N)=O)NC(=O)[C@@H](NC(=O)[C@H](C)NC(=O)[C@@H]1CSSC[C@H](NC(=O)[C@H](CCCCN)NC(=O)CC[C@H](NC(=O)CCCCCCCCCCCCCCCCCCC(=O)O)C(=O)O)C(=O)N[C@@H](CC(N)=O)C(=O)N[C@@H]([C@@H](C)O)C(=O)N[C@@H](C)C(=O)N[C@@H]([C@@H](C)O)C(=O)N1)[C@@H](C)O)C(=O)N[C@@H](CC(C)C)C(=O)N1CCC[C@H]1C(=O)N1CCC[C@H]1C(=O)N[C@H](C(=O)N[C@@H](CC(N)=O)C(=O)N[C@H](C(=O)NCC(=O)N[C@@H](CO)C(=O)N[C@@H](CC(N)=O)C(=O)N[C@H](C(=O)N1CCC[C@H]1C(N)=O)[C@@H](C)O)C(C)C)[C@@H](C)O [Example 130, N-alpha-[(S)-4-Carboxy-4-(19-carboxynonadecanoylamino)butyryl]-[Glu14,His17,Gln21,Pro37]-pramlintide] ({C20 diacid-γGlu}-KCNTATCATQRLAEFLHHSSQNFGPILPPTNVGSNTP-NH2; disulfide 2-7) |
|  | >45 | CC[C@H](C)[C@H](NC(=O)[C@@H]1CCCN1C(=O)CNC(=O)[C@H](Cc1ccccc1)NC(=O)[C@H](CC(N)=O)NC(=O)[C@H](CC(N)=O)NC(=O)[C@H](CO)NC(=O)[C@H](CO)NC(=O)[C@H](Cc1c[nH]cn1)NC(=O)[C@H](CCCNC(=N)N)NC(=O)[C@H](CC(C)C)NC(=O)[C@H](Cc1ccccc1)NC(=O)[C@H](CCC(=O)O)NC(=O)[C@H](C)NC(=O)[C@H](CC(C)C)NC(=O)[C@H](CCCNC(=N)N)NC(=O)[C@H](CCC(N)=O)NC(=O)[C@@H](NC(=O)[C@H](C)NC(=O)[C@@H]1CSSC[C@H](NC(=O)[C@H](CCCCN)NC(=O)CC[C@H](NC(=O)CCCCCCCCCCCCCCCCC(=O)O)C(=O)O)C(=O)N[C@@H](CC(N)=O)C(=O)N[C@@H]([C@@H](C)O)C(=O)N[C@@H](C)C(=O)N[C@@H]([C@@H](C)O)C(=O)N1)[C@@H](C)O)C(=O)N[C@@H](CC(C)C)C(=O)N1CCC[C@H]1C(=O)N1CCC[C@H]1C(=O)N[C@H](C(=O)N[C@@H](CC(N)=O)C(=O)N[C@H](C(=O)NCC(=O)N[C@@H](CO)C(=O)N[C@@H](Cc1c[nH]cn1)C(=O)N[C@H](C(=O)N[C@@H](Cc1ccc(O)cc1)C(N)=O)[C@@H](C)O)C(C)C)[C@@H](C)O [Example 61, N-alpha-[(S)-4-Carboxy-4-(17-carboxyheptadecanoylamino)butyryl]-[Glu14,Arg17,His35]-pramlintide] ({C18 diacid-γGlu}-KCNTATCATQRLAEFLRHSSNNFGPILPPTNVGSHTY-NH2; disulfide 2-7) |
| >45 | >45 | CC[C@H](C)[C@H](NC(=O)[C@@H]1CCCN1C(=O)CNC(=O)[C@H](Cc1ccccc1)NC(=O)[C@H](CC(N)=O)NC(=O)[C@H](CC(N)=O)NC(=O)[C@H](CO)NC(=O)[C@H](CO)NC(=O)[C@H](Cc1c[nH]cn1)NC(=O)[C@H](Cc1c[nH]cn1)NC(=O)[C@H](CC(C)C)NC(=O)[C@H](Cc1ccccc1)NC(=O)[C@H](CCC(=O)O)NC(=O)[C@H](C)NC(=O)[C@H](CC(C)C)NC(=O)[C@H](CCCCN)NC(=O)[C@H](CCC(N)=O)NC(=O)[C@@H](NC(=O)[C@H](C)NC(=O)[C@@H]1CSSC[C@H](NC(=O)[C@H](CCCCN)NC(=O)CC[C@H](NC(=O)CCCCCCCCCCCCCCCCCCC(=O)O)C(=O)O)C(=O)N[C@@H](CC(N)=O)C(=O)N[C@@H]([C@@H](C)O)C(=O)N[C@@H](C)C(=O)N[C@@H]([C@@H](C)O)C(=O)N1)[C@@H](C)O)C(=O)N[C@@H](CC(C)C)C(=O)N1CCC[C@H]1C(=O)N1CCC[C@H]1C(=O)N[C@H](C(=O)N[C@@H](CC(N)=O)C(=O)N[C@H](C(=O)NCC(=O)N[C@@H](CO)C(=O)N[C@@H](CC(N)=O)C(=O)N[C@H](C(=O)N1CCC[C@H]1C(N)=O)[C@@H](C)O)C(C)C)[C@@H](C)O [Example 145, N-alpha-[(S)-4-Carboxy-4-(19-carboxynonadecanoylamino)butyryl]-[Lys11,Glu14,His17,Pro37]-pramlintide] ({C20 diacid-γGlu}-KCNTATCATQKLAEFLHHSSNNFGPILPPTNVGSNTP-NH2; disulfide 2-7) |
